The record followed here is publication PMC2430196, “Antagonist affinity measurements at the Gi-coupled human histamine H3 receptor expressed in CHO cells” (BMC Pharmacology, 2008).

Data set [1] deals with T1, human histamine H3 receptor (Homo sapiens, UniProt Q9Y5N1). The data set is described as follows: CRE-SPAP gene transcription in forskolin-stimulated CHO-H3-SPAP cells. The following applies: for Schild slope / Kd: CRE-SPAP; for Schild slope: 3 antagonist concentrations; for agonist character in CRE-SPAP screen: inhibition of forskolin-stimulated CRE-SPAP production; for pIC50, CRE-SPAP: agonism, inhibition of 4 μM forskolin-stimulated CRE-SPAP production.
Description: (§1) The transfected cells were selected for neomycin resistance (1 mg/ml; for H3 receptor) and hygromycin resistance (200 μg/ml; for CRE-SPAP reporter gene) for 3 weeks and passaged twice during in this period. A single clone was then isolated by dilution cloning to give a clonal line (CHO-H3-SPAP cells). The parent cell CRE-SPAP was also used for control experiments (CHO-SPAP cells).
(§2) Cells were grown to confluence in 96-well tissue culture plates. The cells were then serum starved by removing the media and replacing it with 100 μl serum free media (DMEM/F12 containing 2 mM L-glutamine). […] Where used, pertussis toxin, at a final concentration of 100 ng/ml was added to the serum-free media and thus incubated with the cells for 24 hours. On the day of experimentation, the serum-free media was removed and replaced with 100 μl serum-free media or 100 μl serum-free media containing an antagonist at the final required concentration and the cells incubated for 1 hour. Agonist in 10 μl (diluted in serum free media) was then added to each well and the cells incubated for 10 minutes. Forskolin was then added to all but the basal wells to give a final well concentration of 4 μM and the plates incubated for 5 hours. After 5 hours, the media and all drugs were removed. […] The plates were then incubated at 65°C for 30 minutes to destroy any endogenous phosphatases. After cooling to 37°C, 100 μl 5 mM pNPP in diethanolamine buffer was added to each well and the plates incubated at 37°C in a normal atmosphere until the yellow colour developed.
(§3) Sigmoidal concentration-response curves were fitted to the data using Graphpad Prism 2 and the following equation:
(§4) Antagonist KD values were then calculated from the shift of the agonist concentration responses in the presence of a fixed concentration of antagonist using the following equation:
(§5) where DR (dose ratio) is the ratio of the agonist concentration required to stimulate an identical response in the presence and absence of a fixed concentration of antagonist [B].
(§6) In experiments where three different fixed concentrations of the same antagonist were used, Schild plots were constructed using the following equation:
Log (DR-1) = log [B] - log (KD)
(§7) These points were then fitted to a straight line.
(§8) Partial agonist dissociation constants were therefore estimated according to the method of Stephenson [35] using the following equation:
(§9) KD partial agonist=X.[P]/1−Xwhere X=[A2]−[A1]/[A3]

In data set [2] the target is T1, human histamine H3 receptor. The data set is described as follows: 3H-cAMP accumulation in forskolin-stimulated CHO-H3-SPAP cells. It counts as cell-based. On the set-up: secondarily transfected with the full length human histamine H3 receptor; host or cells: CHO-K1 cells with CRE-SPAP reporter (clonal line CHO-H3-SPAP). The following applies: for intrinsic activity response in 3H-cAMP accumulation: n = 4. How it is done: Cells were grown to confluence in 24-well plates. The media was removed and the cells pre-labelled with ^3H-adenine by incubation with 2 μCi/ml ^3H-adenine in serum-free media (0.5 ml per well) for 3 hours. The ^3H-adenine was then removed and the cells washed by the addition then removal of 1 ml serum-free media. […] Forskolin (final concentration of 10 μM) was then added to all but the basal wells and the plates incubated for 30 minutes. The reaction was terminated by the addition of 50 μl concentrated HCl per well and the plates were then frozen. Later, the plates were thawed and ^3H-cAMP separated from other ^3H-nucleotides by sequential Dowex and alumina column chromatography, as previously described.
When the intrinsic efficacy of the antagonist ligands was examined, the antagonists were incubated for 5 hours at 37°C in order to maximise the chance of detecting any changes in ^3H-cAMP accumulation.
Response=Emax×[A]/IC50+[A]

The subject of the next data set is CHO-H3-SPAP cells. The data set is described as follows: Trypan blue uptake in CHO-H3-SPAP cells. As to conditions: 5 hours incubation.
The next data set deals with CHO-SPAP cells. The data set is described as follows: CRE-SPAP gene transcription in parent CHO-SPAP cells (without the H3 receptor). Type of data set: cell-based, Chinese hamster. As to conditions: for IC50: Cricetulus griseus, CHO-SPAP cells (without the receptor), read-out: pIC50, CRE-SPAP, low potency component (converted). How it is done:
The response to all ligand used in this study was examined in the parent CHO-SPAP cells (expressing the reporter but not the human H3 receptor). Full 7-point concentration response curves were constructed, in the presence and absence of 4 μM forskolin. […].

The target in data set [3] is T1, human histamine H3 receptor. The data set is described as follows: cell-based.
Description: as §1, §2, §3, §4, §5, §6
Log (DR-1) = log [B] - log (KD)
as §7, §8, §9
The mark [4] stands for this setting: agonism, inhibition of 10 μM forskolin-stimulated 3H-cAMP accumulation, CHO-H3-SPAP cells, read-out: pIC50, 3H-cAMP accumulation (converted).
Setting [5] is: agonism, inhibition of 10 μM forskolin-stimulated 3H-cAMP accumulation, CHO-H3-SPAP cells.
[6] abbreviates: Log KD values, agonist N-α-methylhistamine.
Setting [7] is: Log KD values, agonist R-α-methylhistamine.
The mark [8] stands for this setting: Log KD values, agonist S-α-methylhistamine.
Setting [9] is: Log KD values, agonist VUF 8430.
Where [10] appears, read: Log KD values, agonist histamine.
[11] abbreviates: Log KD values, agonist immethridine.
The mark [12] stands for this setting: Log KD values, agonist impentamine (first component of the response).
[13] abbreviates: Log KD values, agonist proxyfan.

Where two headings read alike, the source gives them in different places.

T1 sequence (Q9Y5N1 whole entry): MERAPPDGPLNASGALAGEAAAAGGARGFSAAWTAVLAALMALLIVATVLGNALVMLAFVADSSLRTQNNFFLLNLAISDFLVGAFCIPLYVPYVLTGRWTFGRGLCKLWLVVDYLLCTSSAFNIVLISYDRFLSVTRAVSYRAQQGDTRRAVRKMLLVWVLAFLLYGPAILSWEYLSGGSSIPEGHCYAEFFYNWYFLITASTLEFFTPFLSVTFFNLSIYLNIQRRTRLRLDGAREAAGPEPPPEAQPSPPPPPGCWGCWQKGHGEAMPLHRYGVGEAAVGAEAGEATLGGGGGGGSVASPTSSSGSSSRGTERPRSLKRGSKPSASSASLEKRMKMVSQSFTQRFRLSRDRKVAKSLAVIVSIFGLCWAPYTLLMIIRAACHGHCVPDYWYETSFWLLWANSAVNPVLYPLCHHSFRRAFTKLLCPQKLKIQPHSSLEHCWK

In data set [1], `CN(C)CCCSC(=N)N` [dimaprit] had an IC50 of 2570 nM.
Regarding `S=C(NC1CCCCC1)N1CCC(c2cnc[nH]2)CC1` [thioperamide], the Schild slope was 0.98 ± 0.07 in data set [1] (agonist N-α-methylhistamine); 1.00 ± 0.05 in data set [1] (agonist R-α-methylhistamine); 1.01 ± 0.08 in data set [1] (agonist S-α-methylhistamine); 1.01 ± 0.03 in data set [1] (agonist histamine); 1.02 ± 0.07 in data set [1] (agonist imetit); 1.06 ± 0.02 in data set [1] (agonist immepip). The Schild slope in data set [1] (agonist immethridine) was 1.08 ± 0.04; in data set [1] (agonist proxyfan), 1.02 ± 0.03. For the same molecule, the “inverse agonist response, 3H-cAMP accumulation” value in data set [2] (5 hours incubation with ligand) turned out to be 106.3 ± 2.6 % basal.
`NC(=NCc1ccc(Cl)cc1)SCCCc1cnc[nH]1` [clobenpropit]: the Schild slope amounted to 1.08 ± 0.07 in data set [1] (agonist N-α-methylhistamine); 1.10 ± 0.06 in data set [1] (agonist R-α-methylhistamine); 1.09 ± 0.04 in data set [1] (agonist S-α-methylhistamine); 0.98 ± 0.03 in data set [1] (agonist histamine); 1.02 ± 0.04 in data set [1] (agonist imetit); 1.05 ± 0.02 in data set [1] (agonist immepip). For the same molecule, in data set [1] (agonist immethridine), the Schild slope is recorded as 1.02 ± 0.04. The “intrinsic activity response in 3H-cAMP accumulation” value (shortened to “intrinsic activity response”) in data set [2] (5 hours incubation with ligand) is given as “No responses”.
For the molecule `c1cc(Cc2cnc[nH]2)ccn1` [immethridine], the figures for the IC50 in data set [1] and in data set [2] were 0.389 nM and 0.174 nM, respectively.
In the case of `Cn1cnc(CCN)c1` [1-methylhistamine], the IC50 in data set [1] is 20000 nM.
On to `CNC(=S)NCCCCc1cnc[nH]1` [burimamide], for which the IC50 is 427 nM in data set [1] and 224 nM in data set [2] (setting [4]). Further, the “agonist character in CRE-SPAP screen” value in data set [1] (CHO-H3-SPAP cells) is reported as “partial agonist actions”.
Turning to `Cn1cncc1CCN` [3-methylhistamine], in data set [1], the IC50 is 13500 nM.
`CC(CCCCC(=O)Nc1ccc(C(F)(F)F)cc1)NCCc1cnc[nH]1` (stereo not shown) [HTMT, histamine trifluoromethyl toluidide]: the “pIC50, CRE-SPAP” value in data set [1] (CHO-H3-SPAP cells) was 5.21 ± 0.18.
With `NCCCCCc1cnc[nH]1` [impentamine], the “intracellular uptake of trypan blue” value with CHO-H3-SPAP cells was “did not show any intracellular uptake of trypan blue”. Besides, the “agonist character in CRE-SPAP screen” value in data set [1] (CHO-H3-SPAP cells) was “partial agonist actions”. The IC50 in data set [1] (pIC50, CRE-SPAP, low potency component, CHO-H3-SPAP cells, absence of forskolin, with PTX pre-incubation) is 5130 nM; in data set [1] (pIC50, CRE-SPAP, low potency component, CHO-H3-SPAP cells, absence of forskolin, without PTX pre-incubation) it was 6610 nM; in data set [1] (pIC50, CRE-SPAP, second component remaining after PTX, forskolin-stimulated CHO-H3-SPAP cells, 24 hours pre-incubation with PTX), 6030 nM; in data set [1] (pIC50 Site 1, CRE-SPAP, first component of two-component response, forskolin-stimulated CHO-H3-SPAP cells), 25.7 nM; in data set [2] (read-out: pIC50, 3H-cAMP accumulation (converted)), 3.72 nM; in the data set with CHO-SPAP cells (with forskolin), 4680 nM. For the same molecule, in the data set with CHO-SPAP cells (without forskolin), the IC50 is 3890 nM. The “pIC50 Site 2, CRE-SPAP” value in data set [1] (second component of two-component response, forskolin-stimulated CHO-H3-SPAP cells) was “Site 2 5.40 ± 0.05”.
For the molecule `CNCCc1cnc[nH]1` [N-α-methylhistamine], the “pIC50, CRE-SPAP” value in data set [1] (CHO-H3-SPAP cells) was 8.89 ± 0.04. The “pIC50, 3H-cAMP accumulation” value in data set [2] (setting [5]) was determined as 9.45 ± 0.05.
`Cc1nc[nH]c1CCN` [4-methylhistamine] gave an IC50 in data set [1] of 11500 nM.
As for `N=C(N)SCCc1cnc[nH]1` [imetit], the results for the IC50 in data set [1] and in data set [2] were 0.437 nM and 0.123 nM, respectively.
With `C[C@H]1[C@H]2CC[C@H]3[C@@H]4CC=C5C[C@@H](N(C)C)CC[C@]5(C)[C@H]4CC[C@]23CN1C` [conessine], the Schild slope worked out at 0.98 ± 0.05 in data set [1] (agonist N-α-methylhistamine); 1.00 ± 0.06 in data set [1] (agonist R-α-methylhistamine); 1.08 ± 0.04 in data set [1] (agonist S-α-methylhistamine); 1.07 ± 0.03 in data set [1] (agonist histamine); 1.18 ± 0.09 in data set [1] (agonist imetit); 1.09 ± 0.05 in data set [1] (agonist immepip). The same molecule had a Schild slope in data set [1] (agonist immethridine) of 1.14 ± 0.08. In addition, the Kd was 5.37 nM in data set [1] (pKD values, agonist N-α-methylhistamine); 5.75 nM in data set [1] (pKD values, agonist R-α-methylhistamine); 5.25 nM in data set [1] (pKD values, agonist S-α-methylhistamine); 7.08 nM in data set [1] (pKD values, agonist VUF 8430); 5.13 nM in data set [1] (pKD values, agonist histamine); 5.75 nM in data set [1] (pKD values, agonist imetit). For the same molecule, the dissociation constant (Kd) in data set [1] (pKD values, agonist immethridine) was 3.8 nM; in data set [1] (pKD values, agonist impentamine (first component of the response)) it was 4.17 nM; in data set [1] (pKD values, agonist proxyfan), 2.75 nM; in data set [3], 8.13 nM. Moreover, the “inverse agonist response, 3H-cAMP accumulation” value in data set [2] (5 hours incubation with ligand) is on record as 120 ± 1.5 % basal. For the same molecule, the EC50 in data set [2] (5 hours incubation with ligand, read-out: pEC50, inverse agonist response, 3H-cAMP accumulation (converted)) was 3.09 nM.
Take `c1nc(CC2CCNCC2)c[nH]1` [immepip]: the IC50 in data set [1] was 0.224 nM; in data set [2], 0.0501 nM.
Take `NCCc1ccccn1` [2-pyridylethylamine]: the IC50 in data set [1] was > 100000 nM.
For `c1ccc(COCCCc2c[nH]cn2)cc1` [proxyfan], the IC50 in data set [1] was 16.2 nM; in data set [2] (setting [4]) it was 4.9 nM.
As to `CC(C1=C(CCN(C)C)Cc2ccccc21)c1ccccn1` (stereo not shown) [dimethindine, dimethindene], the Kd was 2140 nM in data set [1] (setting [6]); 2240 nM in data set [1] (setting [7]); 2140 nM in data set [1] (setting [8]); 7760 nM in data set [1] (setting [9]); 2340 nM in data set [1] (setting [10]); 2510 nM in data set [1] (Log KD values, agonist imetit). The dissociation constant (Kd) in data set [1] (setting [11]) is 4170 nM; in data set [1] (setting [12]), 2570 nM; in data set [1] (setting [13]), 5750 nM; in data set [3], 1910 nM. Moreover, the “intrinsic activity response” value in data set [2] (5 hours incubation with ligand) is reported as “No responses”.
`Br.Br.c1nc(CCCC2CCNCC2)c[nH]1` [VUF 5681, 4-[3-(1H-imidazol-4-yl)propyl]piperidine dihydrobromide]: the IC50 in data set [1] was 25.1 nM; in data set [2] (setting [4]), 3.89 nM; in data set [2] (pIC50, 3H-cAMP accumulation, 5 hours incubation, partial agonist response, 5 hours incubation with ligand) it was 3.8 nM. The equilibrium dissociation constant (Kd) is 11.2 nM in data set [1] (setting [6]); 25.1 nM in data set [1] (setting [7]); 17.8 nM in data set [1] (setting [8]); 19.5 nM in data set [1] (setting [9]); 17 nM in data set [1] (setting [10]); 14.1 nM in data set [1] (Log KD values, agonist imetit). Also, the Kd in data set [1] (setting [11]) is 16.2 nM; in data set [1] (setting [13]), 15.8 nM; in data set [3] it was 19.1 nM. Further, the “agonist character in CRE-SPAP screen” value in data set [1] (CHO-H3-SPAP cells) is recorded as “agonist properties”. The “CRE-SPAP response in parent CHO-SPAP cells” value in the data set on CHO-SPAP cells (presence and absence of 4 μM forskolin, up to 100 μM (10 μM for zolatidine, conessine, iodophenpropit, clobenpropit, clemastine)) was “A small decrease from maximum was seen only at the highest concentration (100 μM)”.
Take `CN(C)CCC(c1ccc(Cl)cc1)c1ccccn1` (stereo not shown) [chlorpheniramine]: the Kd in data set [1] (setting [6]) was 3090 nM; in data set [1] (setting [7]) it was 3630 nM; in data set [1] (setting [8]), 3630 nM; in data set [1] (setting [9]), 7410 nM; in data set [1] (setting [10]) it was 4790 nM; in data set [1] (Log KD values, agonist imetit) it was 2630 nM. The Kd in data set [1] (setting [11]) is 2950 nM; in data set [1] (setting [12]), 6170 nM; in data set [1] (setting [13]), 4070 nM; in data set [3], 2570 nM. For the same molecule, the “intrinsic activity response” value in data set [2] (5 hours incubation with ligand) is recorded as “No responses”.
In the case of `Cc1ccc(/C(=C\CN2CCCC2)c2ccccn2)cc1` [triprolidine], the Kd in data set [1] (setting [6]) is 4570 nM; in data set [1] (setting [7]), 2630 nM; in data set [1] (setting [8]), 3390 nM; in data set [1] (setting [9]) it was 5500 nM; in data set [1] (setting [10]), 4470 nM; in data set [1] (Log KD values, agonist imetit), 3720 nM. Further, the Kd in data set [1] (setting [11]) was 2950 nM; in data set [1] (setting [12]), 2240 nM; in data set [1] (setting [13]), 5890 nM; in data set [3], 2450 nM. The “intrinsic activity response” value in data set [2] (5 hours incubation with ligand) was “No responses”.
Turning to `Br.Br.N=C(N)NCCSC(=N)N` [VUF 8430, 2-[(aminoiminmethyl)amino]ethyl carbamimidothioic acid ester dihydrobromide], the “pIC50, CRE-SPAP” value in data set [1] (CHO-H3-SPAP cells) worked out at 5.66 ± 0.08. Further, the “pIC50, 3H-cAMP accumulation” value in data set [2] (setting [5]) is given as 6.38 ± 0.07.
`Cc1nc(N)sc1CCN` [amthamine] showed an IC50 in data set [1] of 13500 nM.

Broadly, the Kd is the constant that tells how readily two partners part at equilibrium. Read a high Kd as lower affinity.
